Assay results published in publication PMC5458078, “Global mapping of CARM1 substrates defines enzyme specificity and substrate recognition” (Nature Communications, 2017).

System: 6xHis-tagged CARM1 EVH1 domain (CARM1 28-140)
Test: FP assay with fluorescein-labelled BAF155 peptide and 6xHis-CARM1 28-140
Type: binding
Settings: fluorescein-labelled BAF155 peptide 5 nM; protein titrated; 50 mM HEPES pH 7.5, 150 mM NaCl, 0.005% NP-40, 0.5 mM EDTA; 2 h, room temperature; triplicates; ex 485/20 nm, em 528/20 nm
Method: The DNA fragment encoding CARM1 residues 28–140 was cloned into pET21a expression vector (Novagen, Madison, WI). DNA construct was transformed into BL21(DE3)pLysS E. coli expression strain. Luria–Bertani media (1–2L) was seeded with 10 ml of overnight starter culture and grown at 37 °C until OD600 nm reached 0.6. Protein expression was then induced with the addition of 0.2 mM isopropyl β-D-1-thiogalactopranoside for 4 h at ambient temperature. Bacterial pellets were then lysed by sonication on ice in lysis buffer (50 mM Tris, pH 7.5, 150 mM NaCl, 0.05% NP-40, supplemented with 1 × protease inhibitor cocktail before use) with 70% amplitude, 30 s on, 30 s off, 10 cycles. […] Protein concentration was then determined using Bradford assay and protein purity was assessed by SDS–PAGE and Coomassie Blue staining.
Fluorescein-labelled BAF155 peptide (constant final concentration at 5 nM) was mixed with titrations of purified recombinant proteins or BSA control in binding buffer (50 mM HEPES, pH 7.5, 150 mM NaCl, 0.005% NP-40, 0.5 mM EDTA) and incubated in dark at room temperature for 2 h. […] Polarization measurements were then corrected for background contributions to the measured intensity by subtracting the parallel and perpendicular intensity readings, from the blank buffer-only wells, from the intensity readings for each data point. […]

Substance: bovine serum albumin (BSA): bovine serum albumin control
- Fluorescence polarization change: no change in signal
